Results published in paper PMC9189214 (Poultry Science, 2022).

Legend:
[1] = Cell viability used to select the allicin concentration; format: cell-based; settings: dog, MDCK-chAbcb1 or MDCK-chAbcg2 cells
chicken BCRP = assay: Bidirectional transport experiment in MDCK-chAbcg2 cells; format: in vitro ADME; settings: net efflux ratio (NER), florfenicol 20 μM, without allicin
[2] = Pharmacokinetic analyses of sulfadiazine and florfenicol in broilers; format: in vivo; settings: florfenicol 20 mg/kg oral, 4-wk broilers

Row | efflux ratio at 20 μM (chicken BCRP) | CLz ([2]; Allicin (32 mg/kg) for 4 wk) | Vz ([2]; Allicin (32 mg/kg) for 4 wk) | CLz ([2]; Control (no allicin)) | Vz ([2]; Control (no allicin)) | SMILES | viability at 5 μM [1]
1 |  |  |  |  |  | C=CCS[S+]([O-])CC=C (stereo not drawn) [allicin, Allicin] | > 90%
2 | > 2 | 18.8 ± 8 mL/min/kg | 7.61 ± 2.89 L/kg | 25.2 ± 8.17 mL/min/kg | 8.57 ± 3.90 L/kg | CS(=O)(=O)c1ccc([C@@H](O)[C@@H](CF)NC(=O)C(Cl)Cl)cc1 [florfenicol] | 
